ChEMBL document CHEMBL4346657, “Anticancer activity, dual prooxidant/antioxidant effect and apoptosis induction profile of new bichalcophene-5-carboxamidines” (Eur J Med Chem, 2019)
Activity calls are given as the source filed them. The rule behind the calls is not given here.

Experiments:
[1] = test system: Panel NCI-60 (60 carcinoma cell lines); assay: Antiproliferative activity against human NCI60 cells assessed as growth inhibition at 10 uM after 48 hrs by sulforhodamine B assay; format: functional; details: read-out: GI
SNB-19 = assay: Antiproliferative activity against human SNB19 cells assessed as growth inhibition after 48 hrs by sulforhodamine B assay; format: functional; details: SNB-19, 48 h
SF-268 = assay: Antiproliferative activity against human SF268 cells assessed as growth inhibition after 48 hrs by sulforhodamine B assay; format: functional; details: SF-268, 48 h
UACC-62 = assay: Antiproliferative activity against human UACC62 cells assessed as growth inhibition after 48 hrs by sulforhodamine B assay; format: functional; details: UACC-62, 48 h
LOX IMVI = assay: Antiproliferative activity against human LOXIMVI cells assessed as growth inhibition after 48 hrs by sulforhodamine B assay; format: functional
CCRF-CEM = assay: Antiproliferative activity against human CCRF-CEM cells assessed as growth inhibition after 48 hrs by sulforhodamine B assay; format: functional
HCT-116 [2] = assay: Induction of apoptosis in human HCT116 cells assessed as increase in caspase 3 mRNA expression at 100 nM after 6 hrs hrs by SYBR green dye-based qRT-PCR analysis relative to control; format: functional
[3] = Pro-oxidant activity assessed as increase in bleomycin-Fe2+ induced calf thymus DNA damage at 2 mM after 1 hr by thiobarbituric acid based absorbance analysis
HOP-62 = assay: Antiproliferative activity against human HOP62 cells assessed as growth inhibition after 48 hrs by sulforhodamine B assay; format: functional; details: HOP-62, 48 h
NCI-H460 = assay: Antiproliferative activity against human NCI-H460 cells assessed as growth inhibition after 48 hrs by sulforhodamine B assay; format: functional; details: NCI-H460, 48 h
NCI-H23 = assay: Antiproliferative activity against human NCI-H23 cells assessed as growth inhibition after 48 hrs by sulforhodamine B assay; format: functional; details: NCI-H23, 48 h
OVCAR-5 = assay: Antiproliferative activity against human OVCAR5 cells assessed as growth inhibition after 48 hrs by sulforhodamine B assay; format: functional; details: OVCAR-5, 48 h
CAKI-1 = assay: Antiproliferative activity against human CAKI-1 cells assessed as growth inhibition after 48 hrs by sulforhodamine B assay; format: functional; details: CAKI-1, 48 h
RPMI-8226 = assay: Antiproliferative activity against human RPMI8226 cells assessed as growth inhibition after 48 hrs by sulforhodamine B assay; format: functional; details: RPMI-8226, 48 h
T47D = assay: Antiproliferative activity against human T47D cells assessed as growth inhibition after 48 hrs by sulforhodamine B assay; format: functional
UACC-257 = assay: Antiproliferative activity against human UACC257 cells assessed as growth inhibition after 48 hrs by sulforhodamine B assay; format: functional; details: UACC-257, 48 h
[4] = Haemolytic activity in human erythrocytes assessed as induction of hemolysis at 2.5 mM after 30 mins relative to H202; format: cell-based, Erythrocyte; details: erythrocytes, read-out: Activity
MCF7 = assay: Antiproliferative activity against human MCF7 cells assessed as growth inhibition after 48 hrs by sulforhodamine B assay; format: functional; details: MCF7, 48 h
OVCAR-3 = assay: Antiproliferative activity against human OVCAR3 cells assessed as growth inhibition after 48 hrs by sulforhodamine B assay; format: functional; details: OVCAR-3, 48 h
Hs-578T = assay: Antiproliferative activity against human Hs578T cells assessed as growth inhibition after 48 hrs by sulforhodamine B assay; format: functional
WI-38 = assay: Cytotoxicity activity against human WI38 cells assessed as reduction in cell viability measured after 48 hrs by MTT assay; format: cell-based; details: WI-38, 48 h
HCT-116 [5] = assay: Induction of apoptosis in human HCT116 cells assessed as increase in p53 mRNA expression at 100 nM after 6 hrs hrs by SYBR green dye-based qRT-PCR analysis relative to control; format: functional
Malme-3M = assay: Antiproliferative activity against human MALME-3M cells assessed as growth inhibition after 48 hrs by sulforhodamine B assay; format: functional
SR = assay: Antiproliferative activity against human SR cells assessed as growth inhibition after 48 hrs by sulforhodamine B assay; format: functional
[6] = Haemolytic activity in human erythrocytes assessed as induction of hemolysis at 10 mM after 30 mins relative to H202; format: cell-based, Erythrocyte; details: read-out: Activity
SK-OV-3 = assay: Antiproliferative activity against human SKOV3 cells assessed as growth inhibition after 48 hrs by sulforhodamine B assay; format: functional; details: SK-OV-3, 48 h
SN12C = assay: Antiproliferative activity against human SN12C cells assessed as growth inhibition after 48 hrs by sulforhodamine B assay; format: functional
SF-539 = assay: Antiproliferative activity against human SF539 cells assessed as growth inhibition after 48 hrs by sulforhodamine B assay; format: functional; details: SF-539, 48 h
SNB-75 = assay: Antiproliferative activity against human SNB75 cells assessed as growth inhibition after 48 hrs by sulforhodamine B assay; format: functional; details: SNB-75, 48 h
[7] = Antioxidant activity assessed as hydroxyl radical scavenging activity after 1 hr by salicylic acid-based Fenton reaction assay; format: functional
RXF 393 = assay: Antiproliferative activity against human RXF393 cells assessed as growth inhibition after 48 hrs by sulforhodamine B assay; format: functional; details: RXF 393, 48 h
[8] = Haemolytic activity in human erythrocytes assessed as induction of hemolysis at 1.25 mM after 30 mins relative to H202; format: cell-based, Erythrocyte; details: erythrocytes, read-out: Activity
DU-145 = assay: Antiproliferative activity against human DU145 cells assessed as growth inhibition after 48 hrs by sulforhodamine B assay; format: functional; details: DU-145, 48 h
SK-MEL-2 = assay: Antiproliferative activity against human SK-MEL-2 cells assessed as growth inhibition after 48 hrs by sulforhodamine B assay; format: functional; details: SK-MEL-2, 48 h
M14 = assay: Antiproliferative activity against human M14 cells assessed as growth inhibition after 48 hrs by sulforhodamine B assay; format: functional; details: M14, 48 h
MDA-MB-231 = assay: Antiproliferative activity against human MDA-MB-231/ATCC cells assessed as growth inhibition after 48 hrs by sulforhodamine B assay; format: functional; details: MDA-MB-231, 48 h

Structure (SMILES): N=C(N)c1ccc(-c2ccc(-c3ccc(Cl)cc3)o2)o1
- inhibition of growth at 10 µM [1]: -2.02%
- GI50 (SNB-19): 1860 nM
- GI50 (SF-268): 1750 nM
- GI50 (UACC-62): 1890 nM
- GI50 (LOX IMVI): 1760 nM
- GI50 (CCRF-CEM): 1960 nM
- fold change (FC) (HCT-116 [2]): 3.55
- Activity [3]: Active
- GI50 (HOP-62): 1650 nM
- GI50 (NCI-H460): 1890 nM
- GI50 (NCI-H23): 1690 nM
- GI50 (OVCAR-5): 1820 nM
- GI50 (CAKI-1): 1690 nM
- GI50 (RPMI-8226): 2120 nM
- GI50 (T47D): 1710 nM
- GI50 (UACC-257): 1990 nM
- hemolysis at 0.5 h, 2500 µM [4]: 41.3%
- GI50 (MCF7): 1270 nM
- GI50 (OVCAR-3): 1830 nM
- GI50 (Hs-578T): 2000 nM
- IC50 (WI-38): 10100 nM
- fold change (FC) (HCT-116 [5]): 1.09
- GI50 (Malme-3M): 1910 nM
- GI50 (SR): 1630 nM
- hemolysis at 0.5 h, 10000 µM [6]: 97.3%
- GI50 (SK-OV-3): 1790 nM
- GI50 (SN12C): 1900 nM
- GI50 (SF-539): 1710 nM
- GI50 (SNB-75): 1500 nM
- Activity [7]: Active
- GI50 (RXF 393): 1820 nM
- hemolysis at 0.5 h, 1250 µM [8]: 14%
- GI50 (DU-145): 1750 nM
- GI50 (SK-MEL-2): 2080 nM
- GI50 (M14): 1850 nM
- GI50 (MDA-MB-231): 2010 nM
